We go through 10 molecules from patent publication US20260297081A1, “COMPOUNDS AND METHODS OF TREATING CANCERS” (Cullgen Inc., priority 2023, published 2026).

The structures appear in SMILES notation.

Type in all cases: cell-based
One test relates to T47D cells. In words: Anti-proliferation (viability) of ER+ breast cancer T47D cells, 6 days (Table 7, FIG. 2B). To be noted: Homo sapiens, 144 h; T47D cells, 6 days, 10-point serial dilution; read-out: GI IC50 in T47D. The method, boiled down:
(§1)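 Heterobifunctional compounds are tested in 10-point serial dilutions on Calu-1 (3-day exposure) and T47D (6-day exposure) cells.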

The next test concerns MCF7 cells. Nature of the test: Anti-proliferation (viability) of MCF7 cells (Table 7, FIG. 2B). The note with it: Homo sapiens, MCF7, MCF7 cells, 3-6 days, 10-point serial dilution; read-out: GI IC50 in MCF-7.
The next test concerns the target CDK4 (Homo sapiens, UniProt P11802+Q16531). In words: CDK4 percentage degradation in Calu-1 cells (Table 6). The note with it: 16 hours; for inhibition at 0.04 µM: 40 nM; for inhibition at 0.2 µM: 200 nM. Also on record: Cells that express cyclin D1-3 and CDK4/6 proteins were treated with heterobifunctional compounds; endogenous in cells; host or cells: Calu-1. A digest of the protocol:
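Percentage degradation of Cyclin D1 and CDK4 derived from densitometry of ECL Western blots on lysates of Calu-1 cells. Treatment was 16 h with compound at either 40 nM or 200 nM.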

In another test the test system is Calu-1 cells. In words: Anti-proliferation (viability) of NSCLC Calu-1 cells, 3 days (Table 7, FIG. 2B). The note with it: Homo sapiens, 72 h; Calu-1 cells, 3 days, 10-point serial dilution; read-out: GI IC50 in Calu-1. A digest of the protocol: as §1

Sequence of CDK4 (P11802 2-303 limits assumed): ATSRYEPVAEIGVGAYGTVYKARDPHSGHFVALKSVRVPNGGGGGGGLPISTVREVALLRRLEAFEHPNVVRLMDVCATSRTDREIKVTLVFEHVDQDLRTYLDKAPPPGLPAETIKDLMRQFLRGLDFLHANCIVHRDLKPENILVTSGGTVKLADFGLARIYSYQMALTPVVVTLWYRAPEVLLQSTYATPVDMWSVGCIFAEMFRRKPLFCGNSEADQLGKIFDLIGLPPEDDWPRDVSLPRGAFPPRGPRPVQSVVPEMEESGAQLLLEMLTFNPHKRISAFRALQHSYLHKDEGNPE
Sequence of CDK4 (P24385 whole entry partner): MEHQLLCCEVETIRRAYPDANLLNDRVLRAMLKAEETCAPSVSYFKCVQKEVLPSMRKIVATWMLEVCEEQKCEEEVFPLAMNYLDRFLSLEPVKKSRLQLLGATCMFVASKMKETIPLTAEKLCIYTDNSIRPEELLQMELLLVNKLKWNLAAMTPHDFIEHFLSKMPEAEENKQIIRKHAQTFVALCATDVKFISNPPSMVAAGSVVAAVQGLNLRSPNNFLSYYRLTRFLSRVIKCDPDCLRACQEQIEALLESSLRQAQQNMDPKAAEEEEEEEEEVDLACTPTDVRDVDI
Sequence of CDK4 (Q16531 2-1140 limits assumed): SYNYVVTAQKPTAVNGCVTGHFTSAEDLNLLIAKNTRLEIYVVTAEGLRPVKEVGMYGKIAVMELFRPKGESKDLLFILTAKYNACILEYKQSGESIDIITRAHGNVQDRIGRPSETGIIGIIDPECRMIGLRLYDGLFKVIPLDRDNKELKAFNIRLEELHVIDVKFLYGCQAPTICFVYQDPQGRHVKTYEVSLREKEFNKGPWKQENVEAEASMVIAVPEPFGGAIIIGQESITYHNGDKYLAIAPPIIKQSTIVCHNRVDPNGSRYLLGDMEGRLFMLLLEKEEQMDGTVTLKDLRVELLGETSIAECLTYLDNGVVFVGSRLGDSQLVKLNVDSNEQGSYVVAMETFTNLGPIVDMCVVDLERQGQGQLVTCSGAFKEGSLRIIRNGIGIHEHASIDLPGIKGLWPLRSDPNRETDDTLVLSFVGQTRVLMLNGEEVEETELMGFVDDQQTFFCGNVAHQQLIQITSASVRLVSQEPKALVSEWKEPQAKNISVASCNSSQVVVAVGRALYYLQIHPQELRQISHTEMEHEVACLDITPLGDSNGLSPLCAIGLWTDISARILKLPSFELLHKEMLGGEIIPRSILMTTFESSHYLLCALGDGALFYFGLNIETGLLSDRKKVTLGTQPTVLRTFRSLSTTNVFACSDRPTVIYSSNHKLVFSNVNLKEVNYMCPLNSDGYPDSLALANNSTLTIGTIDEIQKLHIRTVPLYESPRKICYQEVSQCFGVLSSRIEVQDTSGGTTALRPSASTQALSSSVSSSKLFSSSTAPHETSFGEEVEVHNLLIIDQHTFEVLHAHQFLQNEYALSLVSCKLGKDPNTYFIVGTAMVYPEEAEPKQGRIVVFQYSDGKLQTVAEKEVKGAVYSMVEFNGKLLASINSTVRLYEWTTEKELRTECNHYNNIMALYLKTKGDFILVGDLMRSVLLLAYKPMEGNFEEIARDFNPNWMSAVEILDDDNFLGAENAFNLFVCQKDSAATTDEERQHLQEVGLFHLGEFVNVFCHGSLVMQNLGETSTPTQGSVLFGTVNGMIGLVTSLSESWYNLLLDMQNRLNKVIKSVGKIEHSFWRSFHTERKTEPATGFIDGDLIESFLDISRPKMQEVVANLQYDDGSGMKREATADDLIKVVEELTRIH

The IC50 is the concentration that inhibits the measured activity by half. A word on the inhibition: it is the change of the read-out against control, counted positive when it falls. Regarding `CC(=O)c1c(C)c2cnc(Nc3ccc(N4CCN(CC(=O)NCCCCCNc5nc(NC(C)C)ccc5C(=O)Nc5ccc(N(C)C)nn5)CC4)cn3)nc2n(C2CCCC2)c1=O` [CPD-18, 2-((5-(2-(4-(6-((6-Acetyl-8-cyclopentyl-5-methyl-7-oxo-7,8-dihydropyrido[2,3-d]pyrimidin-2-yl)amino)pyridin-3-yl)piperazin-1-yl)acetamido)pentyl)amino)-N-(6-(dimethylamino)pyridazin-3-yl)-6-(isopropylamino)nicotinamide], the IC50 in the test with T47D cells is at most 50 nM; in the test with MCF7 cells, below 50 nM; in the test with Calu-1 cells, at most 10 nM. Also, at CDK4, the inhibition at 0.04 µM is 50 to 80%. The molecule also returned an inhibition at 0.2 µM against CDK4 of 50 to 80%.
Take `CC(=O)c1c(C)c2cnc(Nc3ccc(N4CCN(CC(=O)NCCCCCCCNc5nc(C)ccc5C(=O)Nc5ccc(N(C)C)nn5)CC4)cn3)nc2n(C2CCCC2)c1=O` [CPD-8, 2-((7-(2-(4-(6-((6-acetyl-8-cyclopentyl-5-methyl-7-oxo-7,8-dihydropyrido[2,3-d]pyrimidin-2-yl)amino)pyridin-3-yl)piperazin-1-yl)acetamido)heptyl)amino)-N-(6-(dimethylamino)pyridazin-3-yl)-6-methylnicotinamide]: the IC50 is at most 50 nM with T47D cells, below 50 nM in the test with MCF7 cells and at most 10 nM in the test on Calu-1 cells. The same molecule gave an inhibition at 0.04 µM against CDK4 of 50 to 80%. The molecule also returned an inhibition at 0.2 µM against CDK4 above 80%.
For `CNc1ccc(C(=O)Nc2ccc(N(C)C)nn2)c(NC2CC(CC(=O)NCCN3CCN(c4ccc(Nc5ncc6c(C)c(C(C)=O)c(=O)n(C7CCCC7)c6n5)nc4)CC3)C2)n1` (stereo not shown) [CPD-101, 2-((3-(2-((2-(4-(6-((6-Acetyl-8-cyclopentyl-5-methyl-7-oxo-7,8-dihydropyrido[2,3-d]pyrimidin-2-yl)amino)pyridin-3-yl)piperazin-1-yl)ethyl)amino)-2-oxoethyl)cyclobutyl)amino)-N-(6-(dimethylamino)pyridazin-3-yl)-6-(methylamino)nicotinamide], in that order: 50 to 100 nM, below 50 nM, at most 10 nM, 50 to 80% and above 80%.
For `CNc1ccc(C(=O)Nc2ccc(N(C)C)nn2)c(NC[C@H]2CC[C@H](NC(=O)CN3CCN(c4ccc(Nc5ncc6c(C)c(C(C)=O)c(=O)n(C7CCCC7)c6n5)nc4)CC3)CC2)n1` [CPD-73], in that order: 50 to 100 nM, 50 to 100 nM, 10 to 50 nM, 50 to 80% and 50 to 80%.
For `CNc1ccc(C(=O)Nc2cc(C)n(C)n2)c(NC2CC3(C2)CN(C(=O)CCN2CCN(c4ccc(Nc5ncc6c(C)c(C(C)=O)c(=O)n(C7CCCC7)c6n5)nc4)CC2)C3)n1` [CPD-129, 2-((2-(3-(4-(6-((6-Acetyl-8-cyclopentyl-5-methyl-7-oxo-7,8-dihydropyrido[2,3-d]pyrimidin-2-yl)amino)pyridin-3-yl)piperazin-1-yl)propanoyl)-2-azaspiro[3.3]heptan-6-yl)amino)-N-(1,5-dimethyl-1H-pyrazol-3-yl)-6-(methylamino)nicotinamide], in that order: 50 to 100 nM, above 100 nM, at most 10 nM, 50 to 80% and 50 to 80%.
As for `CC(=O)c1c(C)c2cnc(Nc3ccc(N4CCN(CC(=O)NCCCCCNc5nc(C)ccc5C(=O)Nc5ccc(N(C)C)nn5)CC4)cn3)nc2n(C2CCCC2)c1=O` [CPD-16, 2-((5-(2-(4-(6-((6-Acetyl-8-cyclopentyl-5-methyl-7-oxo-7,8-dihydropyrido[2,3-d]pyrimidin-2-yl)amino)pyridin-3-yl)piperazin-1-yl)acetamido)pentyl)amino)-N-(6-(dimethylamino)pyridazin-3-yl)-6-methylnicotinamide], the figures for the IC50 with T47D cells, in the test with MCF7 cells and in the test with Calu-1 cells were at most 50 nM, below 50 nM and at most 10 nM, respectively. This molecule also had an inhibition at 0.04 µM on CDK4 of 50 to 80%. The same molecule came in with an inhibition at 0.2 µM at CDK4 of 50 to 80%.
In the case of `CNc1ccc(C(=O)Nc2ccc(N(C)C)nn2)c(Nc2cc(CCNC(=O)CN3CCN(c4ccc(Nc5ncc6c(C)c(C(C)=O)c(=O)n(C7CCCC7)c6n5)nc4)CC3)no2)n1` [CPD-26, 2-((3-(2-(2-(4-(6-((6-Acetyl-8-cyclopentyl-5-methyl-7-oxo-7,8-dihydropyrido[2,3-d]pyrimidin-2-yl)amino)pyridin-3-yl)piperazin-1-yl)acetamido)ethyl)isoxazol-5-yl)amino)-N-(6-(dimethylamino)pyridazin-3-yl)-6-(methylamino)nicotinamide], the IC50 in the test on T47D cells is 50 to 100 nM; in the test on MCF7 cells it was above 100 nM; in the test with Calu-1 cells, 10 to 50 nM. In addition, the inhibition at 0.04 µM against CDK4 was 50 to 80%. The same molecule returned an inhibition at 0.2 µM on CDK4 of 50 to 80%.
Take `CNc1ccc(C(=O)Nc2ccc(N(C)C)nn2)c(NCCCCCNCCN2CCN(c3ccc(Nc4ncc5c(C)c(C(C)=O)c(=O)n(C6CCCC6)c5n4)nc3)CC2)n1` [CPD-21, 2-((5-((2-(4-(6-((6-Acetyl-8-cyclopentyl-5-methyl-7-oxo-7,8-dihydropyrido[2,3-d]pyrimidin-2-yl)amino)pyridin-3-yl)piperazin-1-yl)ethyl)amino)pentyl)amino)-N-(6-(dimethylamino)pyridazin-3-yl)-6-(methylamino)nicotinamide]: the IC50 in the test on T47D cells is 50 to 100 nM; in the test with MCF7 cells, above 100 nM; with Calu-1 cells it was 10 to 50 nM. On CDK4, this molecule gave an inhibition at 0.04 µM of 50 to 80%.
For the molecule `CNc1ccc(C(=O)Nc2ccc(N(C)C)nn2)c(Nc2cnn(CCNC(=O)CN3CCN(c4ccc(Nc5ncc6c(C)c(C(C)=O)c(=O)n(C7CCCC7)c6n5)nc4)CC3)c2)n1` [CPD-24, 2-((1-(2-(2-(4-(6-((6-Acetyl-8-cyclopentyl-5-methyl-7-oxo-7,8-dihydropyrido[2,3-d]pyrimidin-2-yl)amino)pyridin-3-yl)piperazin-1-yl)acetamido)ethyl)-1H-pyrazol-4-yl)amino)-N-(6-(dimethylamino)pyridazin-3-yl)-6-(methylamino)nicotinamide], the IC50 is at least 100 nM in the test on T47D cells, above 100 nM in the test with MCF7 cells and 10 to 50 nM in the test with Calu-1 cells. The inhibition at 0.04 µM on CDK4 fell in the range of 50 to 80%. Moreover, at CDK4, the inhibition at 0.2 µM is above 80%.
Take `CNc1ccc(C(=O)Nc2ccc(N(C)C)nn2)c(NC2CC3(C2)CC(OCC(=O)N2CCN(c4ccc(Nc5ncc6c(C)c(C(C)=O)c(=O)n(C7CCCC7)c6n5)nc4)CC2)C3)n1` (stereo not shown) [CPD-84, 2-((6-(2-(4-(6-((6-Acetyl-8-cyclopentyl-5-methyl-7-oxo-7,8-dihydropyrido[2,3-d]pyrimidin-2-yl)amino)pyridin-3-yl)piperazin-1-yl)-2-oxoethoxy)spiro[3.3]heptan-2-yl)amino)-N-(6-(dimethylamino)pyridazin-3-yl)-6-(methylamino)nicotinamide]: the results for the IC50 in the test on T47D cells, with MCF7 cells and in the test with Calu-1 cells were 50 to 100 nM, above 100 nM and 10 to 50 nM, respectively. Moreover, the inhibition at 0.04 µM against CDK4 was below 30%. For the same molecule, the inhibition at 0.2 µM on CDK4 is below 30%.
